Assay results as given in ChEMBL document CHEMBL1144180, “Phenylethyl cinnamides: a new series of alpha-glucosidase inhibitors from the leaves of Aegle marmelos” (Bioorg Med Chem Lett, 2008).
pIC50: −log10 of the molar value. Active and inactive are the calls of the source. The rule behind the calls is not given here.

Legend:
[1] = Inhibition of alpha-glucosidase at 1.25 ug/ml
[2] = Inhibition of alpha-glucosidase at 2.5 ug/ml
[3] = Inhibition of alpha-glucosidase at 10.0 ug/ml
[4] = Inhibition of alpha-glucosidase
[5] = Inhibition of alpha-glucosidase at 5.0 ug/ml

SMILES | inhibition [1] [%] | inhibition [2] [%] | inhibition [3] [%] | pIC50 [4] | inhibition [5] [%] | Activity [1] | Activity [2] | Activity [5]
COc1ccc([C@@H](CNC(=O)/C=C\c2ccccc2)O[C@@H]2O[C@H](CO)[C@@H](O)[C@H](O)[C@H]2O)cc1 | – | – | 8.8 | – | 3.4 | inactive | inactive | –
CC(C)=CCOc1ccc(CCNC(=O)/C=C/c2ccccc2)cc1 | – | – | 19.7 | – | 15.9 | inactive | inactive | –
CC(C)=CCOc1ccc(/C=C/NC(=O)/C=C/c2ccccc2)cc1 | 1.3 | 8.1 | 30.1 | – | 13.2 | – | – | –
COc1ccc([C@@H](CNC(=O)/C=C/c2ccccc2)O[C@@H]2O[C@H](CO)[C@@H](O)[C@H](O)[C@H]2O)cc1 | 4.6 | 6.1 | 17.6 | – | 11.6 | – | – | –

Results, then the compound that gave them:

inhibition [1] [%] | inhibition [2] [%] | inhibition [3] [%] | pIC50 [4] | inhibition [5] [%] | Activity [1] | Activity [2] | Activity [5] | SMILES
1.7 | 7.5 | 56.5 | 4.45 | 25.2 | – | – | – | COc1ccc(/C=C/NC(=O)/C=C/c2ccccc2)cc1 [ANHYDROAEGELINE]
5.3 | 11.2 | 36 | – | 20.9 | – | – | – | COc1ccc([C@H](O)CNC(=O)/C=C/c2ccccc2)cc1
– | – | 12.6 | – | – | inactive | inactive | inactive | COc1ccc([C@@H](CNC(=O)/C=C/c2ccccc2)OC)cc1
1.5 | 7.8 | 13.5 | – | 11.4 | – | – | – | COc1ccc([C@H](O)CNC(=O)c2ccccc2)cc1
